Experimental data from patent publication US6693085B2, “Macrolide compound JK” (Higeta Shoyu Co., Ltd., priority 2000, dated 2004).
≈ marks a conversion by molar mass, not a printed value. Like-named read-outs stand apart in the source and are kept apart here. One block for each molecule: values may come before it.

Tests used:
[1] = tested on: clinically freshly isolated MRSAs; test: Anti-MRSA activity (MIC), 11 clinically freshly isolated MRSA strains; assay type: cell-based, Staphylococcus aureus; conditions: for MIC: Staphylococcus aureus, MRSA
Description: (§1) Antimicrobial activity of JK-1 was determined by measuring the minimum growth inhibition concentration (MIC) as follows.
(§2) MIC values of JK against a variety of microorganisms were determined on a Mueller-Hinton broth containing 0.2% glucose according to the rule of Japanese Society of Chemotherapy (Kouseibussitsu Taiyo (The Essentials of Antibiotics), 4th ed., University of Tokyo Press, 1992).
(§3) JK-1 was dissolved in methanol, and diluted with the above medium, repeating 2-fold dilution starting from 1 mg/ml. Test microorganisms were added to the above medium to give a test solution of 1×10^6 cells/ml. The JK solution (20 μl) and the test solution (180 μl) were dispensed in a 96 well microplate and incubated at 37° C. After 24 hours, either positive or negative growth was confirmed visually, and the MIC value was caluculated.
Among gram-positive bacteria, there was no difference between MIC values, especially, of Staphylococcus aureus and its multi-drug resistant strain MRSA (Table 5) which have become a clinical problem. In this situation, the antimicrobial activity of JK-1 was compared to that of commercially available 3 drugs in 11 strains of clinically freshly isolated MRSAs.

[2] = tested on: Actinomadura pelletieri IFM0903; test: Sensitivity of the producing strain against antibiotics; assay type: cell-based; conditions: Actinomadura pelletieri IFM0903, strain characterisation
MRSA = test: Antimicrobial activity (MIC, broth dilution); assay type: cell-based, Staphylococcus aureus; conditions: 24 hours, 37° C.
Description: as §1, §2, §3

[3] = tested on: gram-negative bacteria and fungi; test: Antimicrobial activity (MIC), summary for gram-negative bacteria and fungi; assay type: cell-based; conditions: summary of Table 5
Description: as §1, §2, §3

Gordonia bronchialis = test: Antimicrobial activity (MIC, broth dilution); assay type: cell-based; conditions: 24 hours, 37° C.
Description: as §1, §2, §3

Nocardia asteroides = test: Antimicrobial activity (MIC, broth dilution); assay type: cell-based; conditions: 24 hours, 37° C.
Description: as §1, §2, §3

Corynebacterium xerosis = test: Antimicrobial activity (MIC, broth dilution); assay type: cell-based; conditions: 24 hours, 37° C.
Description: as §1, §2, §3

[4] = tested on: Escherichia coli NIH JC-2; test: Antimicrobial activity (MIC, broth dilution); assay type: cell-based; conditions: Escherichia coli NIH JC-2, 24 hours, 37° C.
Description: as §1, §2, §3

Bacillus subtilis PCII89 = test: Antimicrobial activity (MIC, broth dilution); assay type: cell-based; conditions: Bacillus subtilis PCII89, 24 hours, 37° C.
Description: as §1, §2, §3

[5] = tested on: Staphylococcus aureus 209P; test: Antimicrobial activity (MIC, broth dilution); assay type: cell-based; conditions: 24 hours, 37° C.
Description: as §1, §2, §3

Micrococcus luteus = test: Antimicrobial activity (MIC, broth dilution); assay type: cell-based; conditions: 24 hours, 37° C.
Description: as §1, §2, §3

Candida albicans = test: Antimicrobial activity (MIC, broth dilution); assay type: cell-based; conditions: 24 hours, 37° C.
Description: as §1, §2, §3

Asperigillus niger = test: Antimicrobial activity (MIC, broth dilution); assay type: cell-based; conditions: 24 hours, 37° C.
Description: as §1, §2, §3

gram-positive bacteria = test: Antimicrobial activity (MIC), summary for gram-positive bacteria; assay type: cell-based; conditions: range over the gram-positive bacteria of Table 5
Description: as §1, §2, §3

MIC values ([1]; MRSA strain 3666): >100 µg/mL
MIC values ([1]; MRSA strain 3667): >100 µg/mL
MIC values ([1]; MRSA strain 3668): >100 µg/mL
MIC values ([1]; MRSA strain 3669): >100 µg/mL
MIC values ([1]; MRSA strain 3670): >100 µg/mL
MIC values ([1]; MRSA strain 3671): >100 µg/mL
MIC values ([1]; MRSA strain S-1): >100 µg/mL
MIC values ([1]; MRSA strain S-2): >100 µg/mL
MIC values ([1]; MRSA strain S-3): >100 µg/mL
MIC values ([1]; MRSA strain S-4): >100 µg/mL
MIC values ([1]; MRSA strain S-5): >100 µg/mL
SMILES: CC1(C)S[C@@H]2[C@H](NC(=O)Cc3ccccc3)C(=O)N2[C@H]1C(=O)O [penicillin-G]

SMILES: O=c1[nH]cc(F)c(=O)[nH]1 [Compound 5-FU, 5-FU]
Sensitivity against Antibiotics [2]: positive

SMILES: NC[C@H]1O[C@H](O[C@H]2[C@H](O)[C@@H](O[C@H]3O[C@H](CO)[C@@H](O)[C@H](N)[C@H]3O)[C@H](N)C[C@@H]2N)[C@H](N)C[C@@H]1O [Tobramycin]
Sensitivity against Antibiotics [2]: positive

SMILES: CN[C@H](CC(C)C)C(=O)N[C@H]1C(=O)N[C@@H](CC(N)=O)C(=O)N[C@H]2C(=O)N[C@H]3C(=O)N[C@H](C(=O)N[C@H](C(=O)O)c4cc(O)cc(O)c4-c4cc3ccc4O)[C@H](O)c3ccc(c(Cl)c3)Oc3cc2cc(c3O[C@@H]2O[C@H](CO)[C@@H](O)[C@H](O)[C@H]2O[C@H]2C[C@](C)(N)[C@H](O)[C@H](C)O2)Oc2ccc(cc2Cl)[C@H]1O [vancomycin]
MIC ([1]; read-out: MIC values, MRSA strain 3666): 1.56 µg/mL (≈ 1.08 µM)
MIC ([1]; read-out: MIC values, MRSA strain 3667): 3.13 µg/mL (≈ 2.16 µM)
MIC ([1]; read-out: MIC values, MRSA strain 3668): 1.56 µg/mL (≈ 1.08 µM)
MIC ([1]; read-out: MIC values, MRSA strain 3669): 0.78 µg/mL (≈ 0.538 µM)
MIC ([1]; read-out: MIC values, MRSA strain 3670): 0.78 µg/mL (≈ 0.538 µM)
MIC ([1]; read-out: MIC values, MRSA strain 3671): 0.78 µg/mL (≈ 0.538 µM)
MIC ([1]; read-out: MIC values, MRSA strain S-1): 6.25 µg/mL (≈ 4.31 µM)
MIC ([1]; read-out: MIC values, MRSA strain S-2): 3.13 µg/mL (≈ 2.16 µM)
MIC ([1]; read-out: MIC values, MRSA strain S-3): 1.56 µg/mL (≈ 1.08 µM)
MIC ([1]; read-out: MIC values, MRSA strain S-4): 1.56 µg/mL (≈ 1.08 µM)
MIC ([1]; read-out: MIC values, MRSA strain S-5): 1.56 µg/mL (≈ 1.08 µM)

SMILES: CCCC1C=CC2C=C(C)C(OC3CC(NC)C(NC(=O)c4c(O)ccc(Cl)c4C)C(C)O3)CC=CC3C(CC)=CC4C(O)C(O)CC(C)C4C3(C)C(=O)C3=C(O)C2(C1)OC3=O (stereo not shown) [JK-1]
activity relative to vancomycin ([1]; 11 strains of clinically freshly isolated MRSAs): about 6 times
MIC values ([1]; MRSA strain 3666): 0.2 µg/mL (≈ 0.228 µM)
MIC values ([1]; MRSA strain 3667): 0.2 µg/mL (≈ 0.228 µM)
MIC values ([1]; MRSA strain 3668): 0.2 µg/mL (≈ 0.228 µM)
MIC values ([1]; MRSA strain 3669): 0.2 µg/mL (≈ 0.228 µM)
MIC values ([1]; MRSA strain 3670): 1.56 µg/mL (≈ 1.78 µM)
MIC values ([1]; MRSA strain 3671): 0.1 µg/mL (≈ 0.114 µM)
MIC values ([1]; MRSA strain S-1): 0.78 µg/mL (≈ 0.889 µM)
MIC values ([1]; MRSA strain S-2): 0.39 µg/mL (≈ 0.444 µM)
MIC values ([1]; MRSA strain S-3): 0.39 µg/mL (≈ 0.444 µM)
MIC values ([1]; MRSA strain S-4): 0.2 µg/mL (≈ 0.228 µM)
MIC values ([1]; MRSA strain S-5): 0.2 µg/mL (≈ 0.228 µM)
MIC values (MRSA): 0.05 µg/mL (≈ 0.057 µM)
antimicrobial activity against gram-negative bacteria and fungi [3]: No antimicrobial activity
MIC values (Gordonia bronchialis): 0.39 µg/mL (≈ 0.444 µM)
MIC values (Nocardia asteroides): 0.05 µg/mL (≈ 0.057 µM)
MIC values (Corynebacterium xerosis): 0.025 µg/mL (≈ 0.0285 µM)
MIC values [4]: >100 µg/mL
MIC values (Bacillus subtilis PCII89): 0.39 µg/mL (≈ 0.444 µM)
MIC values [5]: 0.05 µg/mL (≈ 0.057 µM)
MIC values (Micrococcus luteus): 0.05 µg/mL (≈ 0.057 µM)
MIC values (Candida albicans): >100 µg/mL
MIC values (Asperigillus niger): >100 µg/mL
MIC values against gram-positive bacteria (gram-positive bacteria): 0.025 to 0.39 µg/mL

MIC values ([1]; MRSA strain 3666): 0.2 µg/mL (≈ 0.232 µM)
MIC values ([1]; MRSA strain 3667): 0.2 µg/mL (≈ 0.232 µM)
MIC values ([1]; MRSA strain 3668): 0.2 µg/mL (≈ 0.232 µM)
MIC values ([1]; MRSA strain 3669): 0.2 µg/mL (≈ 0.232 µM)
MIC values ([1]; MRSA strain 3670): 0.78 µg/mL (≈ 0.903 µM)
MIC values ([1]; MRSA strain 3671): 0.2 µg/mL (≈ 0.232 µM)
MIC values ([1]; MRSA strain S-1): 0.78 µg/mL (≈ 0.903 µM)
MIC values ([1]; MRSA strain S-2): 0.78 µg/mL (≈ 0.903 µM)
MIC values ([1]; MRSA strain S-3): 0.39 µg/mL (≈ 0.452 µM)
MIC values ([1]; MRSA strain S-4): 0.39 µg/mL (≈ 0.452 µM)
MIC values ([1]; MRSA strain S-5): 0.2 µg/mL (≈ 0.232 µM)
SMILES: CCCC1C=CC2C=C(C)C(OC3CC(N)C(NC(=O)c4c(O)ccc(Cl)c4C)C(C)O3)CC=CC3C(CC)=CC4C(O)C(O)CC(C)C4C3(C)C(=O)C3=C(O)C2(C1)OC3=O (stereo not shown) [JK-2]

MIC ([1]; MRSA strain 3666, read-out: MIC values): > 100 µg/mL
MIC ([1]; MRSA strain 3667, read-out: MIC values): > 100 µg/mL
MIC ([1]; MRSA strain 3668, read-out: MIC values): > 100 µg/mL
MIC ([1]; MRSA strain 3669, read-out: MIC values): > 100 µg/mL
MIC ([1]; MRSA strain 3670, read-out: MIC values): > 100 µg/mL
MIC ([1]; MRSA strain 3671, read-out: MIC values): > 100 µg/mL
MIC ([1]; MRSA strain S-1, read-out: MIC values): > 100 µg/mL
MIC ([1]; MRSA strain S-2, read-out: MIC values): 12.5 µg/mL (≈ 17 µM)
MIC ([1]; MRSA strain S-3, read-out: MIC values): > 100 µg/mL
MIC ([1]; MRSA strain S-4, read-out: MIC values): > 100 µg/mL
MIC ([1]; MRSA strain S-5, read-out: MIC values): > 100 µg/mL
SMILES: CC[C@H]1OC(=O)[C@H](C)[C@@H](O[C@H]2C[C@@](C)(OC)[C@@H](O)[C@H](C)O2)[C@H](C)[C@@H](O[C@@H]2O[C@H](C)C[C@H](N(C)C)[C@H]2O)[C@](C)(O)C[C@@H](C)C(=O)[C@H](C)[C@@H](O)[C@]1(C)O [erythromycin]
